In patent US9983211B2 (priority 2007, dated 2018):

Details: in vivo

N#CC(O)c1ccccc1 (stereo not shown) [mandelonitrile]
times less toxic than sodium cyanide: approximately 18 times
